Assay results published in patent EP3338775B1, “USE OF BUTYLIDENEPHTHALIDE” (Everfront Biotech Inc., priority 2015, dated 2017).

Columns and labels:
Type in all cases: cell-based
[1] = test system: EZH2; test: Western blotting of EZH2 protein in brain CSCs CD133+; conditions: BP 0, 12.5, 25, 50, 62.5 and 75 µg/ml; Figure 3
Protocol: It has been known that EZH2 (enhancer of zeste homolog 2) gene is a critical growth related factor of cancer stem cells, and it will affect the growth and growth characteristics of cancer stem cells. Brain CSCs ^CD133+ was treated with different concentrations (0, 12.5, 25, 50, 62.5 and 75 µg/ml) of BP, and then, proteins were extracted from the cells to conduct Western blotting to determine the expression of EZH2 protein in the BP-treated brain CSCs ^CD133+.

[2] = test system: brain CSCs ^CD133+; test: Wound healing assay with brain CSCs CD133+; conditions: BP 0-75 µg/ml or BCNU 0-400 µM for 24 hours; Figure 13
Excerpt: In this research, a wound healing assay was used to further investigate the effect of BP on inhibiting the metastasis of cancer stem cells.

[3] = test system: Sox-2, CD133 and CD44 proteins; test: Western blotting of stemness-maintenance markers in MiaPaCa-2 cells; conditions: BP 0, 12.5, 25 and 50 µg/ml for 24 hours; Figure 6
Protocol: (§1) It has been known that CD44, CD133, Sox-2 (sex-determining region Y protein (SRY)-related high-mobility group box 2) and Oct4 (octamerbinding transcription factor 4) proteins all are stemness-maintenance markers of cancer stem cells and participate in the regulation of the self-renewal and differentiation of cancer stem cells. Brain CSCs ^CD133+ was treated with different concentrations (0, 12.5, 25, 50, 62.5 and 75 µg/ml) of BP for 24 hours, and then, proteins were extracted from the cells to conduct Western blotting to determine the expressions of CD133, Sox-2 and Oct4 proteins in the BP-treated brain CSCs ^CD133+. In addition, MiaPaCa-2 cell line (i.e., a cell line of pancreatic cancer cells) was treated with different concentrations (0, 12.5, 25, and 50 µg/ml) of BP for 24 hours, and then, proteins were extracted from the cells to conduct Western blotting to determine the expressions of Sox-2, CD133 and CD44 proteins in the BP-treated MiaPaCa-2 cells. […]

[4] = test system: CD133, Sox-2 and Oct4 proteins; test: Western blotting of stemness-maintenance markers in brain CSCs CD133+; conditions: BP 0, 12.5, 25, 50, 62.5 and 75 µg/ml for 24 hours; Figures 4 and 5
Protocol: as §1

CCCC=C1OC(=O)c2ccccc21 [BP, butylidenephthalide]
significantly decreased: expression of EZH2 protein in brain CSCs ^CD133+ [1] | number of brain CSCs ^CD133+ migrated to the wound [2] | expressions of Sox-2, CD133 and CD44 proteins in MiaPaCa-2 cells [3] | expressions of CD133, Sox-2 and Oct4 proteins in brain CSCs ^CD133+ [4]
